Measured values as given in patent US11066379B2 (THE TEXAS A&M UNIVERSITY SYSTEM, priority 2018, dated 2021).
Like-named read-outs stand apart in the source and are kept apart here.

What was measured:
SH-SY5Y cells [1] = test: Cellular toxicity in SH-SY5Y cells (MTT, 24 h); type: cell-based; settings: for cytotoxicity toward SH-SY5Y cells: 10-0.01 μM, in words; for IC50: Homo sapiens, SH-SY5Y, read-out: IC50 (cellular toxicity)
From the text: The MTT (3-[4,5-dimethylthiazol-2-yl]-2,5-diphenyltetrazoliumbromide) assay was used to determine the cytotoxicity of gracilin derivatives in T lymphocytes (Burton, J. D. Methods Mol. Med., 2005, 110, 69-78) and SH-SY5Y cells and the protective effect of these compounds against H2O2 insult in neuroblastoma cells as previously described (Leiros, M., Alonso, E., Sanchez, J. A., Rateb, M. E., Ebel, R., Houssen, W. E., Jaspars, M., Alfonso, A. and Botana, L. M. ACS Chem. Neurosci., 2014, S, 71-80). Human T lymphocytes were cultured in 24 well plates at the concentration of 2.5×10^6 cells/mL and exposed to different compound concentrations (0.01, 0.1, 1 and 10 μM) added to the culture medium. Human T cells were maintained in the presence of the pure compound at 37° C. in humidified 5% CO2/95% air atmosphere for 48 h.
(§1) SH-SY5Y cells were seeded in 96-well plates at a density of 2.5×10^5 cells/mL and allowed to adhere for 24 h. At first, cells were treated only with compounds at concentrations ranging from 10-0.01 μM for 24 h to determine their possible cytotoxic effects. Experiments were carried out three times. For neuroprotective experiments, cells were treated with compounds at non-toxic concentrations (1 μM→1 nM) and 150 μM H2O2 for 6 h. Briefly, cells were washed three times with saline solution and 200 μL of MTT (500 μg/mL) dissolved in saline buffer were added to each well. Following 1 h of incubation at 37° C., the cells were disaggregated with sodium dodecyl sulphate at 5%.
Absorbance of formazan crystals was measured at 595 nm with a spectrophotometer plate reader. Saponin was used as death control and its absorbance was subtracted from the other data. All experiments were performed four times.

SH-SY5Y cells [2] = test: Neuroprotection against H2O2 toxicity, cell viability by MTT; type: cell-based, human; settings: 150 μM H2O2 co-treatment 6 h; 0.01, 0.1 and 1 μM
Protocol: as §1, with “5%. Absorbance of formazan crystals was measured at 595 nm with a spectrophotometer plate reader. Saponin was used as death control and its absorbance was subtracted from the other data. All experiments were performed four times.” for “5%.”

SH-SY5Y cells [3] = test: Glutathione assay (Thiol Tracker Violet) after H2O2; type: cell-based, human; settings: 150 μM H2O2 co-treatment 6 h, two or more concentrations
Protocol: Glutathione (GSH) levels were determined using Thiol Tracker Violet dye, which reacts with reduced thiols in cells. Reduced glutathione represents the majority of intracellular free thiols, so this probe can be used to estimate its levels in cells. Measurements were performed following manufacturer's protocol. Cells were seeded in 96-well plates at 2.5×10^5 cells/mL for 24 h and treated with compounds at various concentrations (1 μM→1 nM) and 150 μM H2O2. After 6 h, SH-SY5Y cells were washed twice with PBS and loaded with 100 μL of prewarmed Thiol Tracker Violet dye (10 μM) for 30 min at 37° C. The fluorescence was measured at 404 nm excitation and emission at 526 nm. All experiments were performed four times.

[4] = tested on: mitochondrial membrane permeability transition pore (mPTP) in SH-SY5Y cells; test: Mitochondrial membrane permeability transition pore (mPTP) measurement, TBHP-induced opening; type: cell-based, human; settings: 1 mM TBHP
Protocol: The blockage of mPTP by compounds was determined with the MitoProbe Transition Assay Kit following manufacturer's instructions. Briefly, SH-SY5Y human neuroblastoma cells were re-suspended in pre-warmed PBS/Ca^+2 buffer at a final concentration of 1×10^6 cells/mL. Cells were loaded with 0.01 μM Calcein-AM and incubated at 37° C. for 15 min. Then, 0.4 mM CoCl2 and compounds at selected concentrations were added and incubated for 15 min at 37° C. […] After this incubation, cells were centrifuged and re-suspended in 100 μL of PBS. Just before analyzing, 1 mM tert-butyl hydroperoxide (TBHP) was added to the samples to induce pore opening. Fluorescence intensity was measured at 488 nm excitation and 517 nm emission wavelengths by flow cytometry using the ImageStreamMKII (Amnis Corporation, Merck-Millipore) and […] software. The fluorescence of 10,000 events was analyzed with IDEASR Application vs 6.0 (Amnis Corporation, Merck-Millipore). Experiments were carried out four times.

CypD = CypD (Homo sapiens, UniProt P30405); test: CypD enzyme inhibition assay (PPIase activity); type: biochemical; settings: for IC50: CypD 1 nM; for selectivity for CypD over CypA: PPIase IC50 CypA vs CypD
Protocol: The inhibition of the peptidyl-prolyl cis-trans isomerase (PPIase) activity of compounds was determined by following the rate of hydrolysis of N-succinyl-Ala-Ala-Pro-Phe-pnitroanilide by chymotrypsin. CsA was used as positive control. The assay was performed as previously described (Yan, W., Qing, J., Mei, H., Nong, J., Huang, J., Zhu, J., Jiang, H., Liu, L., Zhang, L. and Li, J. Bioorg. Med. Chem. Lett., 2015, 25, 5682-5686) with small modifications. The assay buffer (20 mM Tris-HCl, 50 mM NaCl, pH 7.8), CypD (1 nM) and the compounds at concentrations ranging from 0.001 to 10 μM were pre-cooled at 4° C. for 1 h. After that time, chymotrypsin at 0.4 mg/mL in 1 mM HCl was added to each well. The reaction was initiated by the addition of the peptide (0.1 mg/mL in 500 mM LiCl in THF). The absorbance at 380 nm was monitored every 30 sec for 5 min with a spectrophotometer plate reader. The blank rates of hydrolysis (in absence of CypD) were subtracted from the rates in the presence of the enzyme. The half-maximal inhibitory concentration (IC50) was calculated by fitting the data with a log(inhibitor) vs. response model of GraphPad Prism 5.0 software. All experiments were performed four times.

SHSY5Y cells = test: Neuroprotective effects summarised over all five assays (viability, TMRM, ROS, GSH, mPTP); type: cell-based, human; settings: 0.001, 0.01 or 0.1 μM; H2O2 challenge
Protocol: As described previously, neuroprotective agents can mediate their effects through inhibition of CypD, an isoform of CypA. […] All assays were performed at the indicated concentrations (0.001, 0.01, or 0.1 μM) based on initial cytotoxicity determined with SHSY5Y cells (Table 1).

Chain of CypD (P30405 30-207): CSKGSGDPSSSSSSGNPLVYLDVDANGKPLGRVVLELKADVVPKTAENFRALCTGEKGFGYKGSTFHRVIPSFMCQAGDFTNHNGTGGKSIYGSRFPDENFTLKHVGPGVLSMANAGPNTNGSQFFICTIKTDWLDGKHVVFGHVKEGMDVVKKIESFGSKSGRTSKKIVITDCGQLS

CC(=O)O[C@@H]1OC[C@H]2C=C(C3(C)CCCCC3)CC[C@@H]12 [Compound 27a, (1S,3aS,7aR)-5-(1-methylcyclohexyl)-1,3,3a,6,7,7a-hexahydroisobenzofuran-1-yl acetate]
cytotoxicity toward SH-SY5Y cells (SH-SY5Y cells [1]; 24 h): led to cell death at the higher concentrations tested
protection of cell viability against H2O2 insult (SH-SY5Y cells [2]): protected cells against H2O2 insult at almost all concentrations
GSH levels (SH-SY5Y cells [3]): recovered GSH levels
mPTP opening [4]: prevent TBHP-induced opening
IC50 (CypD): < 0.5 µM
selectivity for CypD over CypA (CypD): about 3 fold
selectivity for CypD over CypA (CypD; listed as (−)-27a): ~3 fold
neuroprotective / antioxidant effects based on all five assays (SHSY5Y cells): displayed significant neuroprotective effects

CC(=O)O[C@H]1O[C@@H](OC(C)=O)[C@@H]2CC[C@](O)(C3(C)CCCC(C)(C)C3)C[C@H]12 (stereo partly drawn) [Compound 22, (1S,3R,3aS,5R,7aR)-5-hydroxy-5-(1,3,3-trimethylcyclohexyl)octahydroisobenzo-furan-1,3-diyl diacetate]
cytotoxicity toward SH-SY5Y cells (SH-SY5Y cells [1]; 24 h): led to cell death at the higher concentrations tested
IC50 (SH-SY5Y cells [1]; 24 h incubation): 6.5 µM
protection of cell viability against H2O2 insult (SH-SY5Y cells [2]): protected cells against H2O2 insult at almost all concentrations
GSH levels (SH-SY5Y cells [3]): recovered GSH levels
mPTP opening [4]: prevent TBHP-induced opening
IC50 (CypD): < 0.5 µM
neuroprotective / antioxidant effects based on all five assays (SHSY5Y cells): displayed significant neuroprotective effects

CC(=O)O[C@H]1OC[C@@H]2C=C([C@@]3(C)CCCC(C)(C)C3)CC[C@H]12 [Compound 29a, (1R,3aR,7aS)-5-(1,3,3-trimethylcyclohexyl)-1,3,3a,6,7,7a-hexahydroisobenzofuran-1-yl acetate]
cytotoxicity toward SH-SY5Y cells (SH-SY5Y cells [1]; 24 h): led to cell death at the higher concentrations tested
IC50 (SH-SY5Y cells [1]; 24 h): 16.5 µM
protection of cell viability against H2O2 insult (SH-SY5Y cells [2]): protected cells against H2O2 insult at almost all concentrations
GSH levels (SH-SY5Y cells [3]): recovered GSH levels
mPTP opening [4]: prevent TBHP-induced opening
IC50 (CypD): < 0.5 µM
neuroprotective / antioxidant effects based on all five assays (SHSY5Y cells): displayed significant neuroprotective effects
